Data as given in patent publication US11572590B2, “Methods for evaluating tumor cell spheroids using 3D microfluidic cell culture device” (Dana-Farber Cancer Institute, Inc., priority 2017, dated 2023).
Where two headings read alike, the source gives them in different places.

Assays:
Assay in all cases: SelectScreen Kinase Profiling, single point inhibition and IC50 for off-target kinases
Format in all cases: biochemical
off-target kinases [1] = target: off-target kinases (Homo sapiens, UniProt O96013); conditions: PAK4, ATP Km app, ZLYTE
Chain of off-target kinases (Homo sapiens, UniProt O96013) (O96013 whole entry): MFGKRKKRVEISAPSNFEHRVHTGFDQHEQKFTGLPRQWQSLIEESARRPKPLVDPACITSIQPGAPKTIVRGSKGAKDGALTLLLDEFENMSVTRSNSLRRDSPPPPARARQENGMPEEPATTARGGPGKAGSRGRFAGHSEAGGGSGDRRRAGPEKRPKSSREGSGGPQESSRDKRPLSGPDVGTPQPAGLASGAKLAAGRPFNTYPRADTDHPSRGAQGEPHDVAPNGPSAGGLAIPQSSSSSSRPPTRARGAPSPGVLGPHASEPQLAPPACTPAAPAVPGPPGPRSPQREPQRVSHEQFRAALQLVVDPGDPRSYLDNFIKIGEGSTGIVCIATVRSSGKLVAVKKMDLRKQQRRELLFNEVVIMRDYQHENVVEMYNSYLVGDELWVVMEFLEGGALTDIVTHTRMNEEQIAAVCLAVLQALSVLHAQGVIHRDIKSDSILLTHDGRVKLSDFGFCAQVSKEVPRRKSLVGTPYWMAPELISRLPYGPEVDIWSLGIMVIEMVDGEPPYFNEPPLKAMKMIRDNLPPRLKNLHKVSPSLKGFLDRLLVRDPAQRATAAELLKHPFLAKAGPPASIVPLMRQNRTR

off-target kinases [2] = target: T1, off-target kinases (Homo sapiens, UniProt Q8TDC3); conditions: BRSK1 (SAD1), ATP Km app, ZLYTE
T1 sequence (Q8TDC3 1-778): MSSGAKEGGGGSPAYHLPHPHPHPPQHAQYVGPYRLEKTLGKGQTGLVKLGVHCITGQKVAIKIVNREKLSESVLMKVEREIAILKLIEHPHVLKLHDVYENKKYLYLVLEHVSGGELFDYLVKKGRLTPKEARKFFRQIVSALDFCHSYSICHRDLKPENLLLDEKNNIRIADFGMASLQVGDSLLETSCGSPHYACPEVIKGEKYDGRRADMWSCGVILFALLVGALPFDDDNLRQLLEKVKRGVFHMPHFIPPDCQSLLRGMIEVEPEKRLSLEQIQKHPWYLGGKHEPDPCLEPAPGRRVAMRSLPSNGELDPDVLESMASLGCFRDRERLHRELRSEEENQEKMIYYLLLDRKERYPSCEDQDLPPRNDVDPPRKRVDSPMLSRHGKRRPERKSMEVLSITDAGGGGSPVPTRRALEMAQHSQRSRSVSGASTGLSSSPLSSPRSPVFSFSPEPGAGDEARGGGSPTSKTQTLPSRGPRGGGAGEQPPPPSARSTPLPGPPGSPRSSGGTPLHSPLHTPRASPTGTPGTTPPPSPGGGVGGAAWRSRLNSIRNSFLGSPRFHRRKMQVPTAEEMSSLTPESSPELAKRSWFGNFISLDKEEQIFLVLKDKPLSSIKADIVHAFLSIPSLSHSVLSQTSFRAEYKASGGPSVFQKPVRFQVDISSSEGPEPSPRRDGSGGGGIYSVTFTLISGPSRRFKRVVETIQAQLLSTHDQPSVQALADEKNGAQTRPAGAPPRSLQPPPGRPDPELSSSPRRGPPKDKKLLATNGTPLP

off-target kinases [3] = target: T2, off-target kinases (Homo sapiens, UniProt Q9H2K8); conditions: TAOK3 (JIK), LanthaScreen Binding
T2 sequence (Q9H2K8 1-898): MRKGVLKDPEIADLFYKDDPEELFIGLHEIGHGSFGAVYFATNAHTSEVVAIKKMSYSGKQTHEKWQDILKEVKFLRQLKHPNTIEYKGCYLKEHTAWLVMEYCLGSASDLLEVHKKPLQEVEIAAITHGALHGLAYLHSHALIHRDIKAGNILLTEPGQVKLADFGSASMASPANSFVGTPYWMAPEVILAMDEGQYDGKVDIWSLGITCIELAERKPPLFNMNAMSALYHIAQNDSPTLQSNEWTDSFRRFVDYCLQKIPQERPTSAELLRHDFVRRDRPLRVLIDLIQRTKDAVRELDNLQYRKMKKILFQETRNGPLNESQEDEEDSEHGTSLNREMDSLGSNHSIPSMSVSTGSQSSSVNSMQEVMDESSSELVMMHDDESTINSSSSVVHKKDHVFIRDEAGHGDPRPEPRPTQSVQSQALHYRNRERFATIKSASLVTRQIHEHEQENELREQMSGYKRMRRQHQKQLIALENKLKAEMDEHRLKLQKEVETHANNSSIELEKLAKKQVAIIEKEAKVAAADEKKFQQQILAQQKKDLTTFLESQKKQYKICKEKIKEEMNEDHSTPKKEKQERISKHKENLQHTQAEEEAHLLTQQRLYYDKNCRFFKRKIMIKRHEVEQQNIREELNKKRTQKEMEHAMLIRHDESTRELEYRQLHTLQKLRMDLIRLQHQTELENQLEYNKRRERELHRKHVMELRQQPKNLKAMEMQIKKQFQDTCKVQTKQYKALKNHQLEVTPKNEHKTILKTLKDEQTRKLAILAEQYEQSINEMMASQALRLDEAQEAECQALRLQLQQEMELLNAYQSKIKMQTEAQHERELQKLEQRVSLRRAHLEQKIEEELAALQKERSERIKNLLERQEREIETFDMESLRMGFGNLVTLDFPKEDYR

off-target kinases [4] = system: off-target kinases

N#Cc1cc(-c2ncnc(Nc3ccc(N4CCN(C5COC5)CC4)cc3)n2)ccc1OC1CCOCC1 [Compound 1, 5-(4-((4-(4-(oxetan-3-yl)piperazin-1-yl)phenyl)amino)-1,3,5-triazin-2-yl)-2-((tetrahydro-2H-pyran-4-yl)oxy)benzonitrile]
inhibition (off-target kinases [1]; read-out: % Inhibition 1): 91% | inhibition (off-target kinases [1]; read-out: % Inhibition 2): 90% | inhibition (off-target kinases [1]; read-out: % Inhibition Avg): 90% | inhibition (off-target kinases [2]; read-out: % Inhibition 1): 92% | inhibition (off-target kinases [2]; read-out: % Inhibition 2): 89% | inhibition (off-target kinases [2]; read-out: % Inhibition Avg): 90% | inhibition (off-target kinases [3]; read-out: % Inhibition 1): 3% | inhibition (off-target kinases [3]; read-out: % Inhibition 2): 1% | inhibition (off-target kinases [3]; read-out: % Inhibition Avg): 2% | JAK inhibitory activity (off-target kinases [4]): lacks JAK inhibitory activity
